Laboratory results: PMC10353446, “Pharmacokinetics of SPR206 in Plasma, Pulmonary Epithelial Lining Fluid, and Alveolar Macrophages following Intravenous Administration to Healthy Adult Subjects” (Antimicrobial Agents and Chemotherapy, 2023)
Where a SMILES comes first, the peptide text is derived from it. Bridges are numbered along the chain shown (N, C = ends). [ ]: non-standard residue; d: D form. The star is where a group is joined. X1 = NC[C@@H](CC(=O)*)c1cccc(Cl)c1; Dab = NCC[C@H](N)C(=O)O; Dap = NC[C@H](N)C(=O)O

Assays:
[1] = human, in vivo, iv; cited from earlier work
[2] = in vivo, cited from earlier work
clinical = details: human, in vivo, iv, 100 mg
Experimental: (§1) This was a Phase 1, single-center, multiple-dose, open-label PK study in healthy adult male and female subjects. Subjects received three 100 mg doses of SPR206 administered q8h as a 1-h IV infusion. Three consecutive doses were sufficient to achieve steady-state based on a previous Phase 1 study in healthy subjects ([36]). A screening evaluation to determine eligibility for enrollment into the study was performed within 28 days of initial dosing. Subjects who met inclusion and exclusion criteria returned to the study unit 1 day before dosing (Day -1). Subjects who met inclusion and exclusion criteria were confined to the study site from Day -1 (1 day prior to start of dosing) and remained in the study site through completion of all scheduled procedures including collection of the last PK sample and bronchoscopy procedures along with safety evaluations (Day 2). Each subject underwent 1 bronchoscopy with BAL at 2, 3, 4, 6, or 8 h after the start of the third IV infusion. Subjects were required to return for a follow-up visit on Day 7 (+2 days) after discharge from the study site. The maximum duration of participation for each subject was up to 39 days (up to 28 days for Screening, 2 days of confinement, and up to 9 days for follow-up).
Blood samples for determining SPR206 plasma concentrations were collected within 60 min pre-dose (0 h) prior to second and third doses of SPR206 only and at 2, 3, 4, 6, and 8 h after the start of the third dose of SPR206.
Concentrations of SPR206 in plasma were determined by a validated liquid chromatography with tandem mass spectrometry (LC-MS/MS) assay performed at QPS, LLC. For plasma, the assay range was 50 to 50,000 ng/mL. In plasma, intraday precision (% coefficient of variation) ranged from 1.3% to 7.7%, and accuracy (% relative error) ranged from -1.2% to 9.5%. Interday precision ranged from 2.9% to 5.3% and accuracy ranged from 1.6% to 6.0%.
PK analysis of SPR206 plasma concentrations was determined with noncompartmental PK analysis using Phoenix WinNonlin software (version 8.3, Certara Inc.). PK parameters were Tmax, Cmax, Cmin, and AUC0-8.
(§2) Actual BAL samples were collected outside the protocol-specified sampling time windows. Thus, an updated method was utilized where the PK parameters for ELF or AM were calculated from composite concentration profiles of ELF or AM, respectively, based on the 27 subjects in the BAL PK population. Some blood samples were collected outside of the planned sampling windows, and therefore, individual plasma AUC0-8 was calculated first and the mean population plasma AUC0-8 was derived from all individual AUC0-8 values.
(§3) Concentrations of SPR206 were summarized separately for plasma, ELF, and AM by nominal time point using descriptive statistics. The mean concentrations of SPR206 in BAL fluid obtained at the different BAL fluid sampling times (e.g., 2, 3, 4, 6, and 8 h) were used to estimate the AUC0-8 for SPR206 in plasma, ELF, and AM. The concentration at the final sampling time (8 h) also served as the time zero value for determining the AUC0-8 value of each matrix using Phoenix WinNonlin software (version 8.3, Certara Inc.). The ratios of the AUC0-8 of ELF or AM to the AUC0-8 of plasma (total and unbound) were calculated. Plasma protein binding analyses were not conducted as part of this study. The value used for the unbound fraction of SPR206 in plasma was 0.914 (Spero Therapeutics, Inc., data on file). The measured concentrations in ELF and AM represented unbound concentrations, since only unbound plasma fractions are considered to penetrate the lung compartments. Individual plasma concentration-time profile versus time and arithmetic mean concentration (±SD) versus time plots were presented for the concentration-time data.

kidney cell = details: cited from earlier work
[3] = Alveolar macrophage (AM) pharmacokinetics of SPR206 from BAL cell pellet; assay type: in vivo, human
Experimental: as §1
(§4) Subjects were assigned to 1 of 5 bronchoscopy sampling times at 2, 3, 4, 6, or 8 (± 10 min) after the third IV infusion of SPR206. Each subject underwent 1 standardized bronchoscopy and BAL on Day 2 at the assigned time. A blood sample to determine plasma concentrations of SPR206 and urea was obtained during the bronchoscopy procedure at each BAL sampling time (approximating the time of collection of a second aspirate of BAL). Detail descriptions of the outpatient bronchoscopy, BAL procedures, and the handling, processing, and storage of samples have been previously described ([58][–][60]).
(§5) The concentrations of SPR206 in BAL and in cell pellets were determined by Keystone Bioanalytical, Inc. using a validated LC-MS/MS method. ELF concentrations were calculated by the urea dilution method ([61], [62]). AM concentrations were determined from cell pellet drug concentrations, cell count in BAL fluid, and macrophage cell volume ([62]). The calibration curves for SPR206 were linear over a range from 2 to 1,000 ng/mL. The inter-assay precision (%CV) and accuracy (%RE) for SPR206 were 2.81% to 15.84% and -4.02% to 1.51%, respectively. The intra-assay precision (%CV) and accuracy (%RE) for SPR206 were 1.43% to 18.59% and -17.44% to 6.28%, respectively.
as §2
as §3, with “Individual plasma concentration-time profile versus time and arithmetic mean concentration (±SD) versus time plots were presented for the concentration-time data.” left out

[4] = Epithelial lining fluid (ELF) pharmacokinetics of SPR206 by bronchoscopy with BAL, urea dilution method; assay type: in vivo, human
Experimental: as §1, §4, §5
The concentration of urea in plasma and BAL fluid supernatants was determined using a validated LC/MS/MS method from Keystone Bioanalytical, Inc. Thirty human plasma and 30 BAL fluid samples were assayed for urea concentrations. A total of 10 samples for both plasma and BAL fluid (33.3%) were selected for testing, and the calculated assay variability was within 20%. The calibration curve for the urea assay in plasma was linear over the range from 100 to 3,000 μg/mL. The inter-assay precision (%CV) and accuracy (%RE) for SPR206 were 1.98% to 3.37% and -8.17% to 4.13%, respectively. The intra-assay precision (%CV) and accuracy (%RE) for SPR206 were 0.56% to 5.60% and -10.21% to 8.54%, respectively. The calibration range of the urea assay for BAL fluid was linear (r^2 > 0.998) over the range of 0.2 to 10 μg/mL. The inter-assay precision (%CV) and accuracy (%RE) for SPR206 were 6.40% to 9.77% and -3.22% to 1.47%, respectively. The intra-assay precision (%CV) and accuracy (%RE) for SPR206 were 0.96% to 12.08% and -11.30% to 9.15%, respectively.
Actual BAL samples were collected outside the protocol-specified sampling time windows. Thus, an updated method was utilized where the PK parameters for ELF or AM were calculated from composite concentration profiles of ELF or AM, respectively, based on the 27 subjects in the BAL PK population. […]

[5] = in vivo; cited from earlier work
[6] = Safety and tolerability in healthy subjects (Phase 1 BAL study); assay type: in vivo, human
Experimental: as §1
Subjects were continuously monitored during the bronchoscopy. Vital signs (blood pressure, heart rate, and respiratory rate) were recorded prior to the scheduled bronchoscopy time and at 15 min and 1 h following the end of bronchoscopy. Subjects were kept under observation for 2 to 3 h post-bronchoscopy for safety evaluations. Continuous pulse oximetry was conducted from the beginning of preparation of the subject for bronchoscopy until the post-procedure oxygen saturation was at least 93% on room air. Pulse oximetry was extended if a clinically significant increase in heart rate or cardiac rhythm abnormalities were detected. Other safety assessments included physical examinations, clinical laboratory monitoring (hematology, blood chemistry, and urinalysis), 12-lead ECG, and adverse event recording.

[7] = cited from earlier work
[8] = BAL sampling time 2 hours post-dose
[9] = BAL sampling time 2 hours post-dose, unbound fraction 0.914
[10] = BAL sampling time 3 hours post-dose
[11] = BAL sampling time 3 hours post-dose, unbound fraction 0.914
[12] = BAL sampling time 4 hours post-dose
[13] = BAL sampling time 4 hours post-dose, unbound fraction 0.914
[14] = BAL sampling time 6 hours post-dose
[15] = BAL sampling time 6 hours post-dose, unbound fraction 0.914
[16] = BAL sampling time 8 hours post-dose
[17] = BAL sampling time 8 hours post-dose, unbound fraction 0.914
[18] = both sexes, human, in vivo, iv, 100 mg

For colistin, the “Levels in BAL fluid” value [1] is given as “undetectable levels”, the Lung concentrations ([2]; iv) is given as “undetectable” and the “Lung concentrations relative to MIC50 for P. aeruginosa” value [2] is given as “below the MIC50 for P. aeruginosa”.

`CC(C)C[C@@H]1NC(=O)[C@@H](Cc2ccccc2)NC(=O)[C@H](CCN)NC(=O)[C@@H](NC(=O)[C@H](CN)NC(=O)[C@@H](NC(=O)C[C@H](CN)c2cccc(Cl)c2)[C@@H](C)O)CCNC(=O)[C@H]([C@@H](C)O)NC(=O)[C@H](CCN)NC(=O)[C@H](CCN)NC1=O` [SPR206] (X1-T[Dap][Dab][Dab][dF]L[Dab][Dab]T; lactam 3-C (inferred)) showed a Vd (clinical; both sexes) of 19.8 L, a half-life (clinical; both sexes) of 3.6 h and an AUC(0-t) (clinical; both sexes, AUC0-8, geometric mean (CV%)) of 19800 ng·h/mL. The Cmax (clinical; both sexes, arithmetic mean (SD)) was 4400 ng/mL, the Cmax (clinical; both sexes, geometric mean (CV%)) was 4300 ng/mL and the Tmax (clinical; both sexes, Median time to peak plasma concentrations (Tmax)) was 2 h. It also gave a Tmax (clinical; both sexes, Tmax range) of 1.8 to 2.9 h, a Tmax (clinical; both sexes, Tmax, arithmetic mean (SD)) of 2.1 h and a Tmax (clinical; both sexes, Tmax, geometric mean (CV%)) of 2.1 h. For the same molecule, the “AUC0-8, geometric mean (CV%)” value (clinical; both) was 19817.9 (17.9) h*ng/mL, the “Cmax, geometric mean (CV%)” value (clinical; both) was 4333.4 (17.2) ng/mL and the “t1/2, geometric mean (CV%)” value (clinical; both) was 3.6 (13.5) hours. For the same molecule, the “Vz, geometric mean (CV%)” value (clinical) was 19502.1 (18.1) mL, the Kidney cell cytotoxicity (kidney cell) was “reduced kidney cell cytotoxicity” and the “Ratio AM to total plasma concentration, arithmetic mean ± SD” value [3, 8] was 0.206 ± 0.114. For the same molecule, the “Ratio AM to unbound plasma concentration, arithmetic mean ± SD” value [3, 9] was 0.226 ± 0.124, the “Ratio AM to total plasma concentration, arithmetic mean ± SD” value [3, 10] was 0.184 ± 0.065 and the “Ratio AM to unbound plasma concentration, arithmetic mean ± SD” value [3, 11] was 0.201 ± 0.071. The “Ratio AM to total plasma concentration, arithmetic mean ± SD” value [3, 12] was 0.223 ± 0.089, the “Ratio AM to unbound plasma concentration, arithmetic mean ± SD” value [3, 13] was 0.244 ± 0.097 and the “Ratio AM to total plasma concentration, arithmetic mean ± SD” value [3, 14] was 0.519 ± 0.223. The “Ratio AM to unbound plasma concentration, arithmetic mean ± SD” value [3, 15] was 0.568 ± 0.244, the “Ratio AM to total plasma concentration, arithmetic mean ± SD” value [3, 16] was 0.503 ± 0.192 and the “Ratio AM to unbound plasma concentration, arithmetic mean ± SD” value [3, 17] was 0.550 ± 0.210. The “Ratio of AUC0-8 of AM to AUC0-8 of total plasma” value ([3]; after third 100 mg IV dose, plasma n = 34, AM n = 27) was 0.300, the “Ratio of AUC0-8 of AM to AUC0-8 of unbound plasma” value ([3]; after third 100 mg IV dose, plasma n = 34, AM n = 27, unbound fraction 0.914) was 0.328 and the AUC(0-t) [3, 18] was 6030 ng·h/mL. The Cmax [3, 18] was 861 ng/mL, the Tmax [3, 18] was 6.4 h and the “Ratio ELF to total plasma concentration, arithmetic mean ± SD” value [4, 8] was 0.183 ± 0.032. The “Ratio ELF to unbound plasma concentration, arithmetic mean ± SD” value [4, 9] was 0.200 ± 0.035, the “Ratio ELF to total plasma concentration, arithmetic mean ± SD” value [4, 10] was 0.199 ± 0.066 and the “Ratio ELF to unbound plasma concentration, arithmetic mean ± SD” value [4, 11] was 0.218 ± 0.072. For the same molecule, the “Ratio ELF to total plasma concentration, arithmetic mean ± SD” value [4, 12] was 0.190 ± 0.067, the “Ratio ELF to unbound plasma concentration, arithmetic mean ± SD” value [4, 13] was 0.208 ± 0.074 and the “Ratio ELF to total plasma concentration, arithmetic mean ± SD” value [4, 14] was 0.428 ± 0.176. For the same molecule, the “Ratio ELF to unbound plasma concentration, arithmetic mean ± SD” value [4, 15] was 0.469 ± 0.192, the “Ratio ELF to total plasma concentration, arithmetic mean ± SD” value [4, 16] was 0.347 ± 0.138 and the “Ratio ELF to unbound plasma concentration, arithmetic mean ± SD” value [4, 17] was 0.380 ± 0.151. The “Ratio of AUC0-8 of ELF to AUC0-8 of total plasma” value ([4]; after third 100 mg IV dose, plasma n = 34, ELF n = 27) was 0.242, the “Ratio of AUC0-8 of ELF to AUC0-8 of unbound plasma” value ([4]; after third 100 mg IV dose, plasma n = 34, ELF n = 27, unbound fraction 0.914) was 0.264 and the AUC(0-t) [4, 18] was 4860 ng·h/mL. The Cmax [4, 18] was 736 ng/mL, the Tmax [4, 18] was 2.2 h and the “Exposure in the kidney” value [5] was “lower exposure in the kidney than polymyxin B”. For the same molecule, the “Deaths, serious AEs, AEs leading to discontinuation” value ([6]; 100 mg IV q8h x 3 doses) was “No deaths, serious AEs, or AEs leading to study drug discontinuation or study discontinuation were reported”, the “TEAEs reported as mild in severity (of 40 reported TEAEs)” value ([6]; human, in vivo, iv) was 85.0% and the “Clinical laboratory parameters including blood urea nitrogen, serum creatinine, estimated creatinine clearance” value ([6]; human, in vivo, iv, 100 mg) was “No clinically significant abnormalities”. For the same molecule, the “Unbound fraction in plasma” value [7] was 0.914.
